# Assay results reported in US20260217708A1, “FUSED BENZAZEPINE DERIVATIVES FOR USE IN THE TREATMENT OF CANCER AND EPILEPSY” (UCB BIOPHARMA SRL, priority 2023, published 2026).
# Assays:
# [1] = target: T1, system Xc^− (Homo sapiens, UniProt Q9UPY5); assay: Cystine-induced glutamate release assay; type: cell-based; parameters: endogenous in cells; host or cells: H4 cells; settings: H4 cells, sodium-free HEPES buffer, 50 μM L-Cystine, 2 hours, Amplex Red glutamate readout; read-out: pIC50 Cystine-induced glutamate release assay (converted)
# T1 sequence (Q9UPY5 1-501): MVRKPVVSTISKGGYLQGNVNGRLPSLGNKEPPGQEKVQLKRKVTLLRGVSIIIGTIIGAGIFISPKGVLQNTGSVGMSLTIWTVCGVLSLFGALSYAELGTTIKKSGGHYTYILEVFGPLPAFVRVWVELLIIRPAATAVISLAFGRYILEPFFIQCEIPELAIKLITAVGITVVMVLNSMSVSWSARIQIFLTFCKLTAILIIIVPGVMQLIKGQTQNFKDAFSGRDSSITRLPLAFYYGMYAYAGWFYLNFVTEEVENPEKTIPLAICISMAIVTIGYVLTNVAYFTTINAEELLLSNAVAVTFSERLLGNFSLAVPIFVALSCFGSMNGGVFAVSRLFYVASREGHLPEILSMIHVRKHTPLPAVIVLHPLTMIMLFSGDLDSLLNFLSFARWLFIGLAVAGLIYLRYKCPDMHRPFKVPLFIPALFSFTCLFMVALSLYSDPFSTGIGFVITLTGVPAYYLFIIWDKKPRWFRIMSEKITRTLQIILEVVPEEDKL
# T1 sequence (P08195 1-529 partner): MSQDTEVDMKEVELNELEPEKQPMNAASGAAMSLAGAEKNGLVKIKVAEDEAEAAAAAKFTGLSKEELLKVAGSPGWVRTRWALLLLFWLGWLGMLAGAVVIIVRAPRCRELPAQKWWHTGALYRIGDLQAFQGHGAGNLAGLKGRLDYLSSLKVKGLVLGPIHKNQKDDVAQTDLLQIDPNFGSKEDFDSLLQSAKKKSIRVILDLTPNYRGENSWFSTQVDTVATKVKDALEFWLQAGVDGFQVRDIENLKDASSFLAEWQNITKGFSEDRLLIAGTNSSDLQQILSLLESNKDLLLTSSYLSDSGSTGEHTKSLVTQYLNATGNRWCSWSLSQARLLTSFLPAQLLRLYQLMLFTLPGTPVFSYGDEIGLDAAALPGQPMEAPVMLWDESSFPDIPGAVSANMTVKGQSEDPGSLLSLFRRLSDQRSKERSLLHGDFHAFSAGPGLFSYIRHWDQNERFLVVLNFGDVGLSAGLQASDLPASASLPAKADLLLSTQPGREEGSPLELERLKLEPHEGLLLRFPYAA
# How it was run: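 IC50 (reported as pIC50) normalized to DMSO 1% and Erastin 50 μM controls, from Amplex Red fluorescence of glutamate exported into supernatant. H4 cells were washed into sodium-free buffer to exclude EAAT transport, then given compound with 50 μM L-cystine for 2 h in the incubator.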
# [2] = target: T1, system Xc^−; assay: [^14C]L-Cystine uptake assay; type: cell-based; parameters: endogenous in cells; host or cells: H4 cells; settings: H4 cells, sodium-free HEPES buffer, 0.5 μM L-[14C]Cystine and 4.5 μM L-Cystine, 1 hour at 37° C.; read-out: pIC50 [^14C] L-Cystine uptake assay (converted)
# How it was run: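 Compound effect is given as pIC50, taken between controls of 1% DMSO and 50 μM Erastin. Human H4 cells were pretreated 15 min with compound in sodium-free buffer, then took up 0.5 μM [14C]cystine with 4.5 μM cold cystine for 1 hour at 37° C, read by scintillation proximity counting.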
Structure (SMILES),IC50 [1] [µM],IC50 [2] [µM]
"Cc1cc2c(c(C)n1)-c1ccc(Cl)cc1CC(=O)N2CC(=O)Nc1ccc(C(F)(F)F)cc1 [#62, 2-(9-chloro-1,3-dimethyl-6-oxo-7H-pyrido[4,3-d][3]benzazepin-5-yl)-N-[4-(trifluoromethyl)phenyl]acetamide]",0.0158 to 0.0398,< 0.0158
"Cc1cc2c(c(C)n1)-c1cc(F)ccc1CC(=O)N2CC(=O)Nc1ccc(C(F)(F)F)cc1 [#63, 2-(10-fluoro-1,3-dimeth-yl-6-oxo-7H-pyrido[4,3-d][3]benzazepin-5-yl)-N-[4-(trifluoromethyl)-phenyl]acetamide]",0.0158 to 0.0398,< 0.0158
"Cc1cc2c(c(CO)n1)-c1ccccc1CC(=O)N2CC(=O)Nc1ccc(C(F)(F)F)cc1 [#66, 2-[1-(hydroxymethyl)-3-methyl-6-oxo-7H-pyrido[4,3-d][3]benz-azepin-5-yl]-N-[4-(trifluoromethyl)phen-yl]acetamide]",0.1 to 0.501,0.0398 to 0.1
"COc1ncc2c(c1C)-c1cccnc1CC(=O)N2CC(=O)Nc1ccc(C(F)(F)F)cc1 [#67, 2-(4-methoxy-3-meth-yl-9-oxo-5,8,12-triaza-tricyclo[9.4.0.0^2,7]pentadeca-1(11),2(7), 3,5,12,14-hexaen-8-yl)-N-[4-(trifluoromethyl)-phenyl]acetamide]",0.0398 to 0.1,0.1 to 0.501
"N#Cc1c(F)ccc2c1-c1cccnc1CC(=O)N2CC(=O)Nc1ccc(C(F)(F)F)cc1 [#68, 2-(11-cyano-10-fluoro-6-oxo-5H-pyrido[2,3-d][1]benzazepin-7-yl)-N-[4-(trifluoromethyl)-phenyl]acetamide]",0.0398 to 0.1,0.0398 to 0.1
"N#Cc1cc2c(cc1F)-c1cccnc1CC(=O)N2CC(=O)Nc1ccc(C(F)(F)F)cc1 [#69, 2-(9-cyano-10-fluoro-6-oxo-5H-pyrido[2,3-d][1]benzazepin-7-yl)-N-[4-(trifluoromethyl)-phenyl]acetamide]",0.0398 to 0.1,0.0158 to 0.0398
"Cc1cc2c(cn1)-c1ccc(C)nc1CC(=O)N2CC(=O)Nc1ccc(C(F)(F)F)cc1 [#71, 2-(5,13-dimethyl-9-oxo-4,8,12-triazatricyclo[9.4.0.0^2,7]pentadeca-1(11),2(7),3,5,12,14-hexaen-8-yl)-N-[4-(trifluoromethyl)phenyl]acetamide]",0.1 to 0.501,0.1 to 0.501
"Cc1cc2c(c(C3CC3)n1)-c1ccccc1CC(=O)N2CC(=O)Nc1ccc(C(F)(F)F)cc1 [#73, 2-(1-cyclopropyl-3-methyl-6-oxo-7H-pyrido[4,3-d][3]benzazepin-5-yl)-N-[4-(trifluoromethyl)phenyl]acetamide]",0.1 to 0.501,0.1 to 0.501
"COc1nc(C)cc2c1-c1cccnc1CC(=O)N2CC(=O)Nc1ccc(C#N)cc1 [#77, N-(4-cyanophenyl)-2-(3-methoxy-5-methyl-9-oxo-4,8,12-triazatricyclo [9.4.0.0^2,7]pentadeca-1(11),2,4,6,12,14-hexaen-8-yl)acetamide]",0.0398 to 0.1,0.1 to 0.501
"COc1nc(C)cc2c1-c1cccnc1CC(=O)N2CC(=O)Nc1ccc(C(F)(F)F)nc1 [#79, 2-(3-methoxy-5-methyl-9-oxo-4,8,12-triazatri-cyclo[9.4.0.0^2,7]penta-deca-1(11),2,4,6,12,14-hexaen-8-yl)-N-[6-(tri-fluoromethyl)-3-pyridyl] acetamide]",0.1 to 0.501,0.1 to 0.501
"COc1nc(C)cc2c1-c1cccnc1CC(=O)N2CC(=O)Nc1ccc(C2CC2)cc1 [#80, N-(4-cyclopropylphen-yl)-2-(3-methoxy-5-methyl-9-oxo-4,8,12-triazatricyclo[9.4.0.0^2.7]pentadeca-1(11),2(7),3,5,12,14-hexaen-8-yl)-acetamide]",0.0158 to 0.0398,0.0158 to 0.0398
"COc1nc(C)cc2c1-c1cccnc1C(C)C(=O)N2CC(=O)Nc1ccc(C(F)(F)F)cc1 (stereo not shown) [#81, 2-(3-methoxy-5,10-dimethyl-9-oxo-4,8,12-triazatricyclo[9.4.0.0^2,7]pentadeca-1(11),2,4,6, 12,14-hexaen-8-yl)-N-[4-(trifluoromethyl)-phenyl]acetamide]",0.0158 to 0.0398,< 0.0158
"CCOc1nc(C)cc2c1-c1cccnc1CC(=O)N2CC(=O)Nc1ccc(C(F)(F)F)cc1 [#82, 2-(3-ethoxy-5-methyl-9-oxo-4,8,12-triazatri-cyclo[9.4.0.0^2,7]penta-deca-1(15),2(7),3,5,11, 13-hexaen-8-yl)-N-[4-(trifluoromethyl)phenyl] acetamide]",0.1 to 0.501,0.0398 to 0.1
"COc1nc(C)cc2c1-c1cccnc1CC(=O)N2CC(=O)Nc1ccc(C(F)F)cc1 [#83, N-[4-(difluoromethyl)-phenyl]-2-(3-methoxy-5-methyl-9-oxo-4,8,12-triazatricyclo[9.4.0.0^2,7]pentadeca-1(11),2,4,6, 12,14-hexaen-8-yl)acet-amide]",< 0.0158,< 0.0158
"Cc1cc2c(c(F)n1)-c1cccnc1C(C)C(=O)N2CC(=O)Nc1ccc(C(F)(F)F)cc1 (stereo not shown) [#84, 2-(3-fluoro-5,10-dimethyl-9-oxo-4,8,12-triazatricyclo[9.4.0.0^2,7]pentadeca-1(11),2(7),3,5,12,14-hexaen-8-yl)-N-[4-(trifluoromethyl)phenyl]acetamide]",0.0158 to 0.0398,< 0.0158

# The next lines start with the values.
IC50 [1] [µM],IC50 [2] [µM],Structure (SMILES)
0.0158 to 0.0398,< 0.0158,"Cc1cc2c(c(C)n1)-c1cccc(F)c1CC(=O)N2CC(=O)Nc1ccc(C(F)(F)F)cc1 [#64, 2-(8-fluoro-1,3-dimeth-yl-6-oxo-7H-pyrido [4,3-d][3]benzazepin-5-yl)-N-[4-(trifluorometh-yl)phenyl]acetamide]"
0.0158 to 0.0398,< 0.0158,"Cc1cc2c(c(C)n1)-c1ccc(F)cc1CC(=O)N2CC(=O)Nc1ccc(C(F)(F)F)cc1 [#65, 2-(9-fluoro-1,3-dimeth-yl-6-oxo-7H-pyrido[4,3-d][3]benzazepin-5-yl)-N-[4-(trifluorometh-yl)phenyl]acetamide]"
0.0398 to 0.1,0.0158 to 0.0398,"CCc1nc(C)cc2c1-c1ccccc1CC(=O)N2CC(=O)Nc1ccc(C(F)(F)F)cc1 [#72, 2-(1-ethyl-3-methyl-6-oxo-7H-pyrido[4,3-d][3]benzazepin-5-yl)-N-[4-(trifluoromethyl)phenyl]acetamide]"
0.1 to 0.501,0.1 to 0.501,"COc1nc(C)cc2c1-c1cnnn1CC(=O)N2CC(=O)Nc1ccc(C(F)(F)F)cc1 [#74, 2-(14-methoxy-12-methyl-8-oxo-4,5,6,9,13-pentazatricyclo[8.4.0.0^2,6]tetradeca-1(1),2,4,11,13-pentaen-9-yl)-N-[4-(trifluoromethyl)phenyl]acetamide]"
0.0158 to 0.0398,0.0158 to 0.0398,"COc1nc(C)cc2c1-c1cccnc1CC(=O)N2CC(=O)Nc1ccc(C(F)(F)F)cc1 [#75, 2-(3-methoxy-5-methyl-9-oxo-4,8,12-triazatricyclo[9.4.0.0^2,7]pentadeca-1(11),2,4,6,12,14-hexaen-8-yl)-N-[4-(trifluoromethyl)phenyl]acetamide]"
0.1 to 0.501,0.1 to 0.501,"Cc1cc2c(c(O)n1)-c1cccnc1CC(=O)N2CC(=O)Nc1ccc(C(F)(F)F)cc1 [#76, 2-(3-hydroxy-5-methyl-9-oxo-4,8,12-triazatricyclo[9.4.0.0^2,7]pentadeca-1(11),2(7),3,5,12,14-hexaen-8-yl)-N-[4-(trifluoromethyl)phenyl]acetamide]"
0.1 to 0.501,0.1 to 0.501,"O=C(CN1C(=O)Cc2ncccc2-c2c(F)cncc21)Nc1ccc(C(F)(F)F)cc1 [#78, 2-(3-fluoro-9-oxo-5,8,12-triazatricyclo[9.4.0.0^2,7]pentadeca-1(11),2(7),3,5,12,14-hexaen-8-yl)-N-[4-(trifluoromethyl)-phenyl]acetamide]"
0.0398 to 0.1,0.1 to 0.501,"Cc1cc2c(c(F)n1)-c1ccc(Cl)cc1CC(=O)N2CC(=O)Nc1ccc(C(F)(F)F)cc1 [#85, 2-(9-chloro-1-fluoro-3-methyl-6-oxo-7H-pyrido[4,3-d][3]benzazepin-5-yl)-N-[4-(trifluoromethyl)phenyl]acetamide]"
